Counter-ions that a name gives are not always drawn.
Assays:
[1] = molecular target: T1, urokinase enzyme Abbokinase (Homo sapiens, UniProt P00749); assay: Determination of Urokinase Inhibition (chromogenic substrate S-2444); assay type: biochemical; conditions: substrate S-2444 at 200 μM, pH 7.4, enzyme 2-3 nM, 405 nm, 15 minutes; read-out: Inhibitory Potency Against Urokinase, IC50
T1 construct: purchased Abbott Laboratories, Abbott Park, Ill
Description: Distributor of Chromogenix) at 200 μM. […] Four concentrations were chosen, then 5 μl of each were diluted to a total assay volume of 200 μl. […] Several vials were reconstituted as directed on the vial, aliquoted and stored frozen. The enzyme was further diluted in assay buffer and 10 μl was used in the assay. Enzyme concentration in the assay was 2-3 nM. […] The Spectromax® calculated the reaction rates which were used to calculate percent inhibition of the compounds of this invention versus the reaction rate of the enzyme in the absence of any inhibitor. The Ki 's of the inhibitors were calculated from the percent inhibition and previously established Km.

[2] = test system: angiogenesis/capillary network formation; conditions: in vitro; Alliegro and Glaser, J. Cell Biol. 115: 402a (1991); cited from earlier work

IC50 [1] [nM]	Structure (SMILES)	inhibit angiogenesis/capillary network formation [2]
3220	N=C(N)c1cc2ccc(C(=O)Nc3ccccc3)cc2s1 [Example 3, 2-[amino(imino)methyl]-N-phenyl-1-benzothiophene-6-carboxamide]	–
680	CC(C)Oc1cccc(NC(=O)c2ccc3cc(C(=N)N)sc3c2)c1 [Example 4, 2-[amino(imino)methyl]-N-(3-isopropoxyphenyl)-1-benzothiophene-6-carboxamide]	–
–	N=C(N)NC(=O)c1nc(Cl)c(N)nc1N [Amiloride]	angiogenesis/capillary network formation in vitro
192	N=C(N)c1cc2c(Nc3nccs3)cccc2s1 [Example 2, 4-(1,3-thiazol-2-ylamino)-1-benzothiophene-2-carboximidamide trifluoroacetic acid salt]	–

— patent US6207701A, “Urokinase inhibitors” (Abbott Laboratories, priority 2000, dated 2001)
